Assays:
[1] = system: isolated gastric fundic gland; experiment: CAP: Acid Secretion Inhibition Test In Vitro ([14C]-aminopyrine uptake); format: cell-based, rabbit (male Japanese White); settings: final concentration 10^-5 M, histamine 10^-5 M, rabbit gastric fundic glands; for inhibition at 10 µM: Oryctolagus cuniculus, read-out: CAP acid secretion inhibitory rate
Method: CAP: Acid Secretion Inhibition Test In Vitro
The acid secretion inhibitory activity in a cell level is studied. It can also be used for studying the mechanism of the effect. […]
ii-a) Preparation of Isolated Gastric Fundus Gland Suspension
First, an isolated gastric fundic gland sample was prepared. Namely, a male Japanese White rabbit (2.5 to 3 kg) was anesthetized to death with Nembutal™ and then the abdomen was incised. Immediately thereafter, the stomach was removed and, after its pyloric and cardiac antrum were severed, incised along its greater curvature into two sheets. The gastric contents adhering to the mucosal surface was washed out with ice-cooled PBS (-) and then carefully washed therein. The gastric wall was spread on a cork board with its mucosal surface facing up and the feed and mucus thereon were completely removed with sterile gauze. The mucosa was separated therefrom by a spatula and then collected in ice-cooled PBS (-). After being washed twice with PBS (-), the mucosa was minced into 2-3 mm^3 pieces by scissors. These pieces were further washed twice with a nutrient solution. […] Into 70 ml of the nutrient solution containing 1 mg/ml of collagenase, minced mucosal pieces were dispersed and intensely stirred in a conical flask with a stirrer at 37° C. for 40 to 60 minutes. During this period, 100% O2 was sprayed on the nutrient solution surface and the pH was appropriately measured such that it was immediately adjusted to pH 7.4, when the value was therebelow, with a base. The nutrient solution was added to the reaction solution so as to attain the total amount of about 200 ml. After being filtered through a mesh, the suspension was divisionally introduced into 50 ml centrifuge tubes and left for 15 minutes such that gastric fundic gland was deposited. The supernatant was repeatedly removed by an aspirator, dispersed in the nutrient solution, and then left such that the gastric fundic gland was washed three times. At this time, without using a pipette, the suspension was alternately introduced into two centrifuge tubes so as to effect dispersion. The number of cells was counted under microscope and adjusted to 1.6×10^6 cells/ml. […]
ii-b) [^14 C]-aminopyrine Uptake Test
Then, [^14 C]-aminopyrine uptake test was performed. After an Eppendorf tube was weighed, 10 μl (final concentration: 10^-5 M) of histamine dissolved in the above-mentioned nutrient solution, 10 μl (final concentration: 10^-5 M) of the test compound dissolved in DMSO, and 10 μl (final concentration: 0.05 μCi/ml) of [^14 C]-aminopyrine diluted with the nutrient solution were introduced therein and then 970 μl of the isolated gastric fundic gland suspension prepared above was added thereto. […] After being centrifuged for 30 minutes, 200 μl of its supernatant was collected into a mini-vial, while the rest was removed by an aspirator. The gland pellet was completely dried as the tube with its lid being opened was kept for one night in a drying oven at 80° C. and then the lid was closed and the weight was determined at room temperature. Then 100 μl of 1N KOH was added thereto and the tube with its lid being closed was treated at 60° C. for 1 to 2 hours so as to dissolve the pellet. Then, the contents thereof were transferred to a mini-vial. Into the mini-vial containing the supernatant or gland pellet, 4 ml of Atomlite™ was added and then the radioactivity was measured by a liquid scintillation counter. Here, after the radioactivity of the gland pellet was corrected by using a sample in which 20 mM of NaSCN was added so as to cancel the hydrogen ion concentration gradient, the integration ratio of aminopyrine specifically trapped by the gland pellet was calculated. This experiment was performed in duplicate. […]
ii-c) Calculation of the Accumulation Rate of Aminopyrine
Here, its principle will be briefly explained. In the isolated gastric fundic gland, acid is accumulated in a space between its secretory tubule and intraglandular cavity.

[2] = system: gastric corpus mucosa cells; experiment: MTT: Cell Damaging and Protecting Effect Test; format: cell-based, rabbit (male Japanese White); settings: final concentration 10^-4 M, 4 hours; smaller value is better; 100 µM
Excerpt: (§1) MTT: Cell Damaging and Protecting Effect Test
(§2) It is confirmed that there is no toxicity in cell level. Those having a toxicity in cell level are inappropriate as an anti-ulcer drug.
(§3) A male Japanese White rabbit (2.5 to 3 kg) was anesthetized to death by Nembutal™ and, immediately thereafter, its stomach was removed. The greater curvature of the stomach was incised so as to remove the stomach contents therefrom. After the mucosal surface was washed with HBSS (Hanks' Balanced Salt Solution), the stomach in ice-cooled HBSS was transferred to a laboratory. Then, after the pyloric antrum was removed, the gastric corpus mucosa was separated by a spatula and then minced into 2 to 3 mm^3 pieces in BME (Basal Medium Eagle). Thereafter, these pieces were shaken at 120 to 130 cycles/minute for 15 minutes at 37° C. in BME 60 ml containing 280 U/ml of dispase and 30 to 50 U/ml of collagenase. Here, the concentration of collagenase was appropriately changed for each lot in view of the state of cells. The pieces were washed twice with EBSS (Earle's Balanced Salt Solution) containing 1 mM of EDTA and then shaken in MEM (Minimum Essential Medium) containing 1 mM of EDTA at 37° C. for 5 minutes. Subsequently, they were shaken in the dispase and collagenase having the same concentrations as those mentioned above for 15 minutes so as to remove the supernatant and then further shaken at 37° C. for 50 to 60 minutes at 120 to 130 cycles/minute. Then, after being washed twice with HBSS, Ham F12 containing 2% of Ultrocer G™ was used to attain the concentration of 1×10^6 cells/ml. Thus formed suspension was dispensed in each well of a 96-well plate by 200 μl. The plate was incubated in the atmosphere composed of 5% CO2 and 95% air at 37° C. for three days so as to attain a confluent state and then subjected to MTT assay.
(§4) The sample compound was dissolved in DMSO so as to attain a concentration of 10^-2 M and then diluted with HBSS containing 2% of Ultrocer G™ so as to attain a final concentration of 10^-4 M. To each group, which 8 wells were used for, 10 μl of MTT reagent was added immediately after 100 μl of the medium in each well was exchanged for same volume of the resulting solution of the sample compound. After being incubated in an atmosphere composed of 5% CO2 and 95% air at 37° C. for 4 hours, thus formed solution was centrifuged and then its supernatant was discarded. Subsequently, 100 μl of 100% ethanol was added to the residue so as to dissolve MTT formazan. Then, the absorbance (OD: 570 to 630) was measured by a microplate reader. This method utilizes a phenomenon in which MTT is changed to MTT formazan only by mitochondria of living cells so as to change color.
(§5) The cell damaging or cell protecting effect of the sample compound at the final concentration of 10^-4 M was expressed as cell damaging rate (%) as follows:
(§6) cell damaging rate (%)=(1-(absorbance in sample group/absorbance in control group))×100
(§7) Accordingly, the smaller rate value is better in the cell damage.

[3] = MTT: Cell Damaging and Protecting Effect Test; format: cell-based, rabbit (male Japanese White); settings: rabbit, gastric corpus mucosa cells, final concentration 10^-4 M, smaller value is better, read-out: MTT cell damaging rate
Excerpt: as §1, §2, §3, §4, §5, §6, §7

stress ulcer = experiment: WIS: Restraint and Water Immersion Stress-Induced Ulcer Inhibition Test; format: in vivo, rat (male Crj:SD or Slc:SD); settings: 100 mg/kg oral, rats, 7 hours restraint and water immersion (21° C.)
Method: WIS: Restraint and Water Immersion Stress-Induced Ulcer Inhibition Test
The degree of inhibition of the stress ulcer formation is tested.
Male Crj:SD or Slc:SD rats (6 to 7-week-old) were fasted overnight, but allowed free access to water. Each group has 5 to 8 of these rats. […] To a control group, the vehicle was administered. 10 minutes later, the rats were placed in a stress cage and immersed to the level of xipfoid process in a water bath (21° C.) for 7 hours. At the end of the stress, the rats were sacrificed by inhalation of ether or carbon dioxide. Then, the stomach of each was removed, inflated by injecting 10 ml of 5% formalin neutral buffer solution, and immersed in 1% formalin neutral buffer solution for 30 minutes or more to be fixed. The stomach was incised along the greater curvature and then the length of each erosion in the glandular portion was determined under dissecting microscope. The sum of the length of erosions per stomach was defined as ulcer index (UI).
The effect obtained when 100 mg/kg of the sample compound had been administered was expressed as ulcer formation inhibitory rate (%) as follows:
ulcer formation inhibitory rate (%)=(1-(UI in sample group/UI in control group))×100

Helicobacter pyroli = experiment: AHP: Antibacterial Activity Test Against Helicobacter pyroli (agar dilution); format: cell-based, HP NCTC 11637; settings: for AHP antibacterial activity, colony number relative to control plate: MIC 100 μg/ml or more, plate with 250 mM solution of the sample compound; for MIC: Helicobacter, NCTC11637, 168 h, HP NCTC 11637, agar dilution, 7 days, read-out: AHP minimum inhibitory concentration (MIC)
Method: AHP: Antibacterial Activity Test Against Helicobacter pyroli i) Meaning The minimum inhibitory concentration (MIC) against Helicobacter pyroli (microaerophilic gram-negative bacterium which is supposed to deeply involve in pathogenesis, relapse, and recrudescence of ulcer, referred to as "HP" in the following) is measured so as to find out compounds which have antimicrobial activity against Helicobacter pyroli. ii) Method MICs were determined by the agar dilution method. The stock culture (-80° C.) of HP NCTC 11637 was thawed and cultured on tripticase soy agar supplemented with 5% sheep blood at 37° C. in an atmosphere of 5% O2, 10% CO2, and 85% N2. Grown colonies were transferred to the same plate and precultured for 3 days under the same condition. […] 10 μl of the bacterial suspension for inoculation (about 10^3 cfu) was inoculated on this plate and cultured for 7 days under the same condition as that of preculture. […] As the result of the comparison of these plates, when the number of the colony on the plate containing the sample compound was less than 90% with respect to that on the control plate, it was represented by "+". Contrary to this, when there was 90% or more, it was represented by "-".

mice = settings: mouse, in vivo
Method: AT: Single Dose Toxicity Pretest
Male Slc:ICR mice (5-week-old) were used. Each group has 3 to 5 mice and each mouse was fasted, but allowed free access to water, for 4 to 5 hours from 9 a.m. in the test day. Then, 2,000 mg/10 ml/kg of the sample compound dissolved or suspended in an aqueous solution of 0.5% sodium carboxymethyl cellulose was orally administered thereto. To a control, only the vehicle was administered. […] The body weight was measured before and after the fasting as well as at the same time everyday. The dead animals were immediately subjected to autopsy and their organs were observed microscopically. Also, the living animals were sacrificed with ether or carbon dioxide one week after the administration and then their organs were observed microscopically.
The toxicity at the single dose of 2,000 mg/kg of the sample compound was expressed as being classified into 5 levels.
5: Mortality rate is 0%; no toxicity is found at all both in behavior and organs.
4: Mortality rate is 0%; while no toxicity is found in organs, slight toxicity is observed in behavior and body weight increase.
3: While there is a dead animal (though not all the animals are dead), no toxicity is found in organs.
2: Regardless of whether there is a dead animal or not, toxicity is found in organs.
1: All the animals are dead.

Compound | inhibition at 10 µM [1] | cytotoxicity at 4 h, 100 µM [3] | AHP antibacterial activity, colony number relative to control plate (Helicobacter pyroli) | also measured
CC(C)=CCC/C(C)=C/COc1ccc(C(=O)N2CCN(CCNC(=O)c3ccc4c(c3)OCO4)CC2)cc1CC(C)C [Example 2, 1-(4-geranyloxy-3-isobutyl)benzoyl-4-[2-(piperonyloylamino)ethyl]piperazin] | – | – | – | CAP acid secretion inhibitory rate [1]: 99.4%; MTT cell damaging rate [2]: 22%
CC(C)=CCC/C(C)=C/COc1ccc(C(=O)N2CCN(CCOC(=O)c3ccncc3)CC2)cc1 [Example 3, 1-(4-geranyloxy)benzoyl-4-(2-isonicotinoyloxyethyl)piperazine] | 101% | -24% | – | –
CC(C)=CCC/C(C)=C/COc1ccc(C(=O)N2CCN(Cc3ccc4c(c3)OCO4)CC2)cc1 [Example 4, 1-(4-geranyloxy)benzoyl-4-piperonylpiperazine] | – | -29% | + (the number of the colony on the plate containing the sample compound was less than 90% with respect to that on the control plate) | WIS ulcer formation inhibitory rate (stress ulcer): 43%
COc1cc(C(=O)N2CCN(Cc3ccccc3)CC2)cc(OC)c1OC/C=C(\C)CCC=C(C)C [Example 5, 1-benzyl-4-(3,5-dimethoxy-4-geranyloxy)benzoylpiperazine] | 99.2% | -50% | + (the number of the colony on the plate containing the sample compound was less than 90% with respect to that on the control plate) | –
CC(C)=CCOc1cc(C(=O)N2CCN(Cc3ccccc3)CC2)cc(OCC=C(C)C)c1OCC=C(C)C [Example 6, 1-benzyl-4-(3,4,5-triprenyloxy)benzoylpiperazine] | 99.5% | -16% | – | –
COc1cc(C(=O)N2CCN(Cc3ccccc3)CC2)cc(OC/C=C(\C)CCC=C(C)C)c1OC [Example 7, 1-benzyl-4-(3,4-dimethoxy-5-geranyloxy)benzoylpiperazine] | 99.6% | -44% | – | –
CC(C)Cc1cc(C(=O)N2CCN(C(=O)NC(C)C)CC2)ccc1OCc1ccc(F)cc1 [Example 8, 1-[4-(4-fluorobenzyloxy)-3-isobutyl]benzoyl-4-(N-isopropylcarbamoyl)piperazine] | 36.9% | -93% | – | MIC (Helicobacter pyroli): < 3.13 µg/mL
CC(C)Cc1cc(C(=O)N2CCN(Cc3ccccc3)CC2)ccc1OCc1ccccc1 [Example 9, 1-(4-benzyloxy-3-isobutyl)benzoyl-4-benzylpiperazine] | 94.6% | -32% | + (the number of the colony on the plate containing the sample compound was less than 90% with respect to that on the control plate) | –
CC(C)Cc1cc(C(=O)N2CCN(c3ccccn3)CC2)ccc1OCc1ccc(F)cc1 [Example 10, 1-[4-(4-fluorobenzyloxy)-3-isobutyl]benzoyl-4-(2-pyridyl) piperazine] | 96% | -34% | – | AT single dose toxicity level (mice): 5
CC(C)Cc1cccc(C(=O)N2CCN(Cc3ccc4c(c3)OCO4)CC2)c1O [Example 11] | 93.1% | 5% | – | MIC (Helicobacter pyroli): < 3.13 µg/mL
CC(C)Cc1ccc(C(=O)N2CCN(C(c3ccccc3)c3ccccc3)CC2)cc1O [Example 12, 1-diphenylmethyl-4-(3-hydroxy-4-isobutyl)benzoylpiperazine] | 41.9% | -12% | + (the number of the colony on the plate containing the sample compound was less than 90% with respect to that on the control plate) | –

Source: patent US5962456A, “N-acylpiperazine derivative, anti-ulcer drug, and antibacterial drug” (Shiseido Co., Ltd., priority 1996, dated 1999)
